For this test, the target named is T1, intestinal α-glucosidase.
T1 construct: called intestinal; pNPG assay after Kim et al; 5KZW (docking only) is not the assayed enzyme
In words: p-nitrophenol release from pNPG, absorbance […] nm. The class given is biochemical. As to conditions: p-nitrophenyl α-D-glucopyranoside (250 μL of 20 mM), sodium phosphate pH 6.9, 37°C, 10 min preincubation.

Each structure is given as a SMILES string.

Broadly, the IC50 is the concentration that inhibits the measured activity by half. Molecule `O=C(O)/C=C/c1ccc(O)c(O)c1` [caffeic acid] came in with an IC50 of 1050 ± 250 µM.

The values above are taken from PMC8279857, “In Vitro and In Silico Evaluation for the Inhibitory Action of O. basilicum Methanol Extract on α-Glucosidase and α-Amylase” (Evidence-based Complementary and Alternative Medicine : eCAM, 2021).
